Data on 13 compounds can be found in US11998539B2, “Substituted aminoquinolones as DGKalpha inhibitors for immune activation” (Bayer Aktiengesellschaft, priority 2019, dated 2024).

Each structure is given as a SMILES string.

DGKα, sequence (P23743 other isoform, or with tags, fused parts or gaps): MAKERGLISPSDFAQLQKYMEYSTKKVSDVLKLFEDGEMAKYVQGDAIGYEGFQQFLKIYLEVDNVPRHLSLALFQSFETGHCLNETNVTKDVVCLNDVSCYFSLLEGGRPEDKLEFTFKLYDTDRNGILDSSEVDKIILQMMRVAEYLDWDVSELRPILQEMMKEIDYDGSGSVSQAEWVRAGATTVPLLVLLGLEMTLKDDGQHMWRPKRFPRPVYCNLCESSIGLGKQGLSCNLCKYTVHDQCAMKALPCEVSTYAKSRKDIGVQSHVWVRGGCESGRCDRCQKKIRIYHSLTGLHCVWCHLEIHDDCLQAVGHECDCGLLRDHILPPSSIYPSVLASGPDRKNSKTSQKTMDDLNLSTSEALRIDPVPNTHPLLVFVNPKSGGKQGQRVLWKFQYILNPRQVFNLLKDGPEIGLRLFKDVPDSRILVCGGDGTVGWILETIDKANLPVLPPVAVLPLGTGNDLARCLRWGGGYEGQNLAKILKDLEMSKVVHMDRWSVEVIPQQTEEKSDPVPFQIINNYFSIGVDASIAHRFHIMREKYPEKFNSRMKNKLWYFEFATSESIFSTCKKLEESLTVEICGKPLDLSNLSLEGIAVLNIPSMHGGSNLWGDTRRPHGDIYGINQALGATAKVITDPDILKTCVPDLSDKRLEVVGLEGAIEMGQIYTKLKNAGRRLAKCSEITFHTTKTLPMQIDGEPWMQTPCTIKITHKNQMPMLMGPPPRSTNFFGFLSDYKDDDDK

This experiment deals with DGKα (Homo sapiens (Human), UniProt P23743). The experiment in a line: Human DGKα kinase activity inhibition assay (ADP-Glo). To be noted: recombinant full-length human DGKα, 55 μM ATP, 7 μM 1,2-dioleoyl-sn-glycerol, read-out: IC50 values of examples in in vitro human DGKa kinase activity inhibition assays. The experiment is classed as biochemical. The protocol:
Human DGKα Kinase Activity Inhibition Assay
Human DGKα inhibitory activity of compounds of the present invention was quantified employing the human DGKα kinase activity assay as described in the following paragraphs. In essence, the enzyme activity was measured by quantification of the adenosine-di-phosphate (ADP) generated as a co-product of the enzyme reaction via the “ADP-Glo™ Kinase Assay” kit from the company Promega. This detection system works as follows: In a first step the ATP not consumed in the kinase reaction is quantitatively converted to cAMP employing an adenylate cyclase (“ADP-Glo-reagent”), then the adenylate cyclase is stopped and the ADP generated in the kinase reaction converted to ATP, which subsequently generates in a luciferase-based reaction a glow-luminescence signal (“Kinase Detection Reagent”).
C-terminally FLAG-tagged, recombinant full-length human DGKα (expressed in baculovirus infected insect cells, purified using anti-Flag pulldown and size exclusion chromatography as described below, DGKa_hu_1) was used as enzyme. As substrate for the kinase 1,2-dioleoyl-sn-glycerol, reconstituted in octyl-β-D-glucopyranoside micelles, was used. […] Then 35 volumes of 50 mM MOPS buffer (pH 7.4) were added to yield a solution of 0.28 mM 1,2 dioleoyl-sn-glycerol and 200 mM […], which was aliquoted, flash-frozen in liquid nitrogen, and stored at −20° C. until use.
For the assay 50 nl of a 100-fold concentrated solution of the test compound in dimethyl sulfoxide (DMSO, Sigma) was pipetted into either a white 1536-well or a white low-volume 384-well microtiter plate (both Greiner Bio-One, Frickenhausen, Germany).
In general terms: ADP-Glo first removes unused ATP, then detects ADP through luciferase.
Turning to `COc1ccc2c(N3CCC(c4nc5cc(F)c(F)cc5o4)CC3)c(C#N)c(=O)n(C)c2c1` [Example 254, 4-[4-(5,6-difluoro-1,3-benzoxazol-2-yl)piperidin-1-yl]-7-methoxy-1-methyl-2-oxo-1,2-dihydroquinoline-3-carbonitrile], the IC50 (in general, the midpoint of a concentration-inhibition curve) was 15 nM.
The same measure for `Cc1ccc2oc(C3CCN(c4c(C(N)=O)c(=O)n(C)c5ccc(OCC6CC6)cc45)CC3)nc2c1` [Example 505, 6-(cyclopropylmethoxy)-1-methyl-4-[4-(5-methyl-1,3-benzoxazol-2-yl)piperidin-1-yl]-2-oxo-1,2-dihydroquinoline-3-carboxamide]: 269 nM.
With `Cc1ccc2oc(C3(C)CCN(c4c(C#N)c(=O)n(C)c5ccccc45)CC3)nc2c1` [Example 288, 1-methyl-4-[4-methyl-4-(5-methyl-1,3-benzoxazol-2-yl)piperidin-1-yl]-2-oxo-1,2-dihydroquinoline-3-carbonitrile], the IC50 was found to be 3.8 nM.
With `Cn1c(=O)c(C(N)=O)c(N2CCC(c3nnc(-c4cccc(C(F)(F)F)c4)o3)CC2)c2cc(Br)ccc21` [Example 519], the IC50 was determined as 20 nM.
For the compound `Cc1ccc2nc(C3CCN(c4c(C#N)c(=O)n(C)c5ccccc45)CC3)oc2c1` [Example 7, 1-methyl-4-[4-(6-methyl-1,3-benzoxazol-2-yl)piperidin-1-yl]-2-oxo-1,2-dihydroquinoline-3-carbonitrile], the IC50 is 3.2 nM.
With `Cc1ccc2oc(C3CCN(c4c(C#N)c(=O)n(C)c5ccccc45)CC3)nc2c1` [Example 5, 1-methyl-4-[4-(5-methyl-1,3-benzoxazol-2-yl)piperidin-1-yl]-2-oxo-1,2-dihydroquinoline-3-carbonitrile], the IC50 was 1.6 nM.
As for `Cn1c(=O)c(C(N)=O)c(N2CCC(C)(c3nc4ccccc4o3)CC2)c2cc(F)ccc21` [Example 296, 4-[4-(1,3-benzoxazol-2-yl)-4-methylpiperidin-1-yl]-6-fluoro-1-methyl-2-oxo-1,2-dihydroquinoline-3-carboxamide], the IC50 is 0.5 nM.
Under `Cc1ccc2oc(C3(C)CCN(c4c(C#N)c(=O)n(C)c5c(Br)cccc45)CC3)nc2c1C(F)(F)F` [Example 233, 8-bromo-1-methyl-4-{4-methyl-4-[5-methyl-4-(trifluoromethyl)-1,3-benzoxazol-2-yl]piperidin-1-yl}-2-oxo-1,2-dihydroquinoline-3-carbonitrile] stands 1270 nM; under `Cc1ccc2oc(C3CCN(c4c(C(N)=O)c(=O)n(C)c5ccc(P(C)(C)=O)cc45)CC3)nc2c1` [Example 453, 6-(dimethylphosphoryl)-1-methyl-4-[4-(5-methyl-1,3-benzoxazol-2-yl)piperidin-1-yl]-2-oxo-1,2-dihydroquinoline-3-carboxamide], 598 nM.
The same measure for `COC1(c2nc3ccccc3o2)CCN(c2c(C#N)c(=O)n(C)c3ccccc23)CC1` [Example 390, 4-[4-(1,3-benzoxazol-2-yl)-4-methoxypiperidin-1-yl]-1-methyl-2-oxo-1,2-dihydroquinoline-3-carbonitrile]: 3.5 nM; for `Cn1c(=O)c(C#N)c(N2CCC(C)(c3nc4ccccc4o3)CC2)c2ccc(F)cc21` [Example 235, 4-[4-(1,3-benzoxazol-2-yl)-4-methylpiperidin-1-yl]-7-fluoro-1-methyl-2-oxo-1,2-dihydroquinoline-3-carbonitrile]: 2.9 nM; for `Cc1ccc2oc(C3(C)CCN(c4c(C#N)c(=O)n(C)c5c(Br)cccc45)CC3)nc2c1` [Example 158, 8-bromo-1-methyl-4-[4-methyl-4-(5-methyl-1,3-benzoxazol-2-yl)piperidin-1-yl]-2-oxo-1,2-dihydroquinoline-3-carbonitrile]: 304 nM.
`Cc1ccc2oc(C3(C)CCN(c4c(C#N)c(=O)n(C)c5cc(NC6CC6)ccc45)CC3)nc2c1` [Example 418, 7-(cyclopropylamino)-1-methyl-4-[4-methyl-4-(5-methyl-1,3-benzoxazol-2-yl)piperidin-1-yl]-2-oxo-1,2-dihydroquinoline-3-carbonitrile]: the IC50 was 1.4 nM.
